Measurements as given in patent US3934024A, “Method of producing analgesia and compositions useful therein” (Sharps Associates, priority 1975, dated 1976).

How the values were obtained:
[1] = tested on: mice; assay: Acetic acid writhing test in mice (oral); type: in vivo; details: for Percent inhibition: acetic acid writhing, writhes counted for 20 minutes beginning 5 minutes after acid injection
Procedure: The analgesic activity of the compound was evaluated in an acetic acid writhing test. The acetic acid writhing test used was modified from that described by Whittle, Brit J. Pharmacol., 22, 296 (1964). The number of writhes were counted for a 20 minute period beginning 5 minutes after the injection of the acid. Analgetic potency was calculated from the difference between the test groups and their controls.
Acetic acid writhing test in mice (oral)

[2] = tested on: rat; assay: rat tail flick test for analgesic activity; type: in vivo; details: oral, 95% C.L. = 0.9 - 4.8
Text: In the rat tail flick test for analgesic activity [D'Amour and Smith, J. Pharmacol. Exper. Therap.

For CCCCCC(C)C(C)c1cc(O)c2c(c1)OC(C)(C)C1=C2CCCS1 (stereo not drawn) [Compound I, 1,2-dihydro-5,5-dimethyl-10-hydroxy-8-(3-methyl-2-octyl)-3H,5H-thiopyrano[2,3-c][1]benzopyran], the ED50 ([1]; Mus musculus, oral, 95% C.L. = 9.2 - 12.4) was 10.8 mg/kg, the Percent inhibition ([1]; 5 mg/kg p.o.) was 20.7% and the Percent inhibition ([1]; 10 mg/kg p.o.) was 48.9%. It also gave a Percent inhibition ([1]; 20 mg/kg p.o.) of 74.0%, a Percent inhibition ([1]; 40 mg/kg p.o.) of 95.6% and an ED50 [2] of 2.7 mg/kg.
